Data published in patent US8697127B2, “Method for preparing microspheres and microspheres produced thereby” (Ewha University-Industry Collaboration Foundation, priority 2008, dated 2014).

Assays:
Type in all cases: physicochemical
[1] = Progesterone encapsulation ratio of PLGA microparticles (HPLC)
Protocol: 0.25 g of 7E or 4A was dissolved in 4 mL of ethyl acetate. […] After stirring and filtration, microparticles were recovered. The microparticles were redispersed in 16 mL of 0.5% PVA solution and stirred, after adding distilled water to make 80 mL. […] Similarly, microparticles encapsulating progesterone were prepared using ethyl formate instead of ethyl acetate and using 6 mL of 10 M NaOH or 5 mL of 10 M HCl as a decomposition reagent. Some of the microparticles prepared in Example <7-1> were accurately weighed and dissolved in 4 mL of tetrahydrofuran. After diluting 6 times with methanol, the solution was filtered to remove the PLGA precipitate. Some of the filtrate (20 μl) was subjected to HPLC (Shimadzu LC-20AD, Luna 5 m C18(2) column) for measurement of progesterone concentration. Theoretical drug load (%) and actual drug load (%) were calculated from the following equations, and their ratio was defined as drug encapsulation ratio (%). Theoretical drug load (%)=(Weight of drug used (mg)/[Weight of PLGA used (mg)+Weight of drug used (mg)])×100 Actual drug load (%)=(Weight of drug encapsulated in microparticles (mg)/Weight of microparticles used for encapsulation ratio measurement (mg))×100 Drug encapsulation ratio (%)=(Actual drug load (%)/Theoretical drug load (%))×100 0.25 g of 7E was dissolved in 4 mL of isopropyl formate or propyl formate. […] After stirring and filtration, microparticles were recovered. The microparticles were redispersed in 16 mL of 0.5% PVA solution and stirred, after adding distilled water to make 80 mL. After filtration, the microparticles were in a vacuum dryer.

[2] = Thermogravimetric analysis of microparticles; conditions: up to 150° C.; isopropyl formate, 0.25 g of 7E and 250 mg of progesterone; 10° C./min, nitrogen
Protocol: The microparticles prepared in Example <7-3> (using isopropyl formate, 0.25 g of 7E and 250 mg of progesterone) and microparticles not including progesterone were analyzed using a thermogravimetric analyzer (TGA 2050). Nitrogen was used as a purge gas. Change in weight of the microparticles was automatically recorded while increasing temperature at a rate of 10° C./min.

[3] = Aripiprazole encapsulation ratio of PLGA microparticles (HPLC); conditions: PLGA 4A/0.25 g; 60 mg of aripiprazole; Ethyl formate; 5 mL of 8 M NaOH
Protocol: (§1) 0.25 g of 4A was dissolved in 4 mL of ethyl formate. Then, 60 mg of aripiprazole was dissolved to prepare a dispersed phase. The solution was added to 40 mL of 0.5% PVA aqueous solution and stirred. After adding 5 mL of 8 M NaOH to the resultant o/w emulsion, followed by reaction for 30 minutes, 40 mL of distilled water was further added and, after stirring, microparticles were recovered by filtration. The microparticles were redispersed in 16 mL of 0.5% PVA aqueous solution. After adding distilled water to make 80 mL, the solution was stirred. After filtration, the microparticles were dried overnight in a vacuum dryer.
(§2) Some of the microparticles including aripiprazole were accurately weighed and dissolved in 4 mL of tetrahydrofuran. After diluting 6 times with ethanol, the solution was filtered to remove the PLGA precipitate. Some of the filtrate (20 μl) was subjected to HPLC (Shimadzu LC-20AD) for measurement of aripiprazole concentration. Drug encapsulation ratio (%) was calculated using the equations given in Example <7-2>.

[4] = Encapsulation ratio of docetaxel, piroxicam, rivastigmine or tolterodine in PLGA microparticles (HPLC); conditions: 40 μl of rivastigmine; 0.25 g of 7E; Ethyl acetate (table); 5 mL of 7 M NaOH
Protocol: Then, 0.25 g of 7E was dissolved to prepare a dispersed phase. The solution was added to 40 mL of 0.5% PVA aqueous solution and stirred. After adding 5 mL of 7 M NaOH to the resultant o/w emulsion, followed by reaction for 30 minutes, 40 mL of distilled water was further added and, after stirring, microparticles were recovered by filtration. The microparticles were redispersed in 16 mL of 0.5% PVA aqueous solution. After adding distilled water to make 80 mL, the solution was stirred. […] After diluting 6 times with ethanol, the solution was filtered to remove the PLGA precipitate.

[5] = Anastrazole encapsulation ratio of PLGA microparticles (HPLC); conditions: 60 mg of anastrazole
Protocol: Each of 7E, 4A and 2A polymers was dissolved in 4 mL of ethyl acetate. Then, 60 mg of anastrazole was dissolved to prepare a dispersed phase. The solution was added to 40 mL of 0.5% PVA aqueous solution and stirred. 5 mL of 10 M NaOH was added to the resultant o/w emulsion. After adding 40 mL of distilled water and stirring, microparticles were recovered by filtration. The microparticles were redispersed in 16 mL of 0.5% PVA aqueous solution. After adding distilled water to make 80 mL, the solution was stirred. After filtration, the microparticles were dried overnight in a vacuum dryer.
Similarly, microparticles encapsulating progesterone were prepared using ethyl formate instead of ethyl acetate and using 6 mL of 10 M NaOH.
as §2, with “prepared in Example <8-1>” for “including aripiprazole”, “50% acetonitrile,” for “ethanol,”, “filtered using a 0.45 μm syringe filter” for “filtered”, “LC-20AD, Luna 5 m C18(2) column)” for “LC-20AD)”, “anastrazole” for “aripiprazole”

[6] = HPLC chromatogram analysis of anastrazole for decomposition or modification products; conditions: ethyl acetate/PLGA (75:25)/NaOH; encapsulated in the microparticles and then recovered; HPLC chromatograms
Protocol: In order to indirectly estimate whether decomposition or modification products of anastrazole are produced during the preparation of microparticles using ethyl acetate/PLGA (75:25)/NaOH as in Example <8-1>, various samples were prepared (as in Example <8-1>) and their chromatograms were analyzed.

[7] = Anastrazole encapsulation ratio of PLGA microparticles (HPLC); conditions: PLGA 7E/0.15 g + 4A 0.1 g; 60 mg of anastrazole; Ethyl formate; 6 mL of 10 M NaOH
[8] = Risperidone encapsulation ratio of PLGA microparticles (HPLC); conditions: PLGA 4A/0.25 g; 60 mg of risperidone; Ethyl formate; 5 mL of 8 M NaOH
Protocol: as §1, with “risperidone” for “aripiprazole”
as §2, with “risperidone” for “aripiprazole”

[9] = PLGA 4A/0.25 g, progesterone 60 mg, 10M NaOH 5 mL, ethyl acetate
[10] = PLGA 4A/0.25 g, progesterone 60 mg, 10M NaOH 6 mL, ethyl formate
[11] = PLGA 4A/0.25 g, progesterone 250 mg, 10M NaOH 5 mL, ethyl acetate
[12] = PLGA 4A/0.25 g, progesterone 250 mg, 10M NaOH 6 mL, ethyl formate
[13] = PLGA 7E/0.25 g, progesterone 60 mg, 10M HCl 5 mL, ethyl formate
[14] = PLGA 7E/0.25 g, progesterone 60 mg, 10M NaOH 5 mL, ethyl acetate
[15] = PLGA 7E/0.25 g, progesterone 60 mg, 10M NaOH 6 mL, ethyl formate
[16] = PLGA 7E/0.25 g, progesterone 100 mg, 10M HCl 5 mL, ethyl formate
[17] = PLGA 7E/0.25 g, progesterone 160 mg, 10M HCl 5 mL, ethyl formate
[18] = PLGA 7E/0.25 g, progesterone 200 mg, 10M HCl 5 mL, ethyl formate
[19] = PLGA 7E/0.25 g, progesterone 250 mg, 10M HCl 5 mL, ethyl formate
[20] = PLGA 7E/0.25 g, progesterone 250 mg, 10M NaOH 5 mL, ethyl acetate
[21] = PLGA 7E/0.25 g, progesterone 250 mg, 10M NaOH 6 mL, ethyl formate
[22] = PLGA 2A/0.25 g, Ethyl acetate, 5 mL of 10 M NaOH
[23] = PLGA 4A/0.25 g, Ethyl acetate, 5 mL of 10 M NaOH
[24] = PLGA 7E/0.15 g + 4A 0.1 g, Ethyl formate, 6 mL of 10 M NaOH
[25] = PLGA 7E/0.15 g + 4A/0.1 g, Ethyl acetate, 5 mL of 10 M NaOH

For `CC(=O)[C@H]1CC[C@H]2[C@@H]3CCC4=CC(=O)CC[C@]4(C)[C@H]3CC[C@]12C` [progesterone], the “Encapsulation ratio (%) Batch 1” value [1, 9] was 90.5%, the “Encapsulation ratio (%) Batch 2” value [1, 9] was 92.8% and the “Encapsulation ratio (%) Batch 3” value [1, 9] was 95.3%. For the same molecule, the “Encapsulation ratio (%) Batch 1” value [1, 10] was 92.0%, the “Encapsulation ratio (%) Batch 2” value [1, 10] was 93.3% and the “Encapsulation ratio (%) Batch 3” value [1, 10] was 95.6%. The “Encapsulation ratio (%) Batch 1” value [1, 11] was 93.2%, the “Encapsulation ratio (%) Batch 2” value [1, 11] was 92.2% and the “Encapsulation ratio (%) Batch 3” value [1, 11] was 98.5%. For the same molecule, the “Encapsulation ratio (%) Batch 1” value [1, 12] was 96.2%, the “Encapsulation ratio (%) Batch 2” value [1, 12] was 93.2% and the “Encapsulation ratio (%) Batch 3” value [1, 12] was 100.7%. For the same molecule, the “Encapsulation ratio (%) Batch 1” value [1, 13] was 84.1%, the “Encapsulation ratio (%) Batch 2” value [1, 13] was 88.7% and the “Encapsulation ratio (%) Batch 3” value [1, 13] was 86.1%. For the same molecule, the “Encapsulation ratio (%) Batch 1” value [1, 14] was 93.8%, the “Encapsulation ratio (%) Batch 2” value [1, 14] was 92.3% and the “Encapsulation ratio (%) Batch 3” value [1, 14] was 96.0%. The “Encapsulation ratio (%) Batch 1” value [1, 15] was 93.9%, the “Encapsulation ratio (%) Batch 2” value [1, 15] was 94.0% and the “Encapsulation ratio (%) Batch 3” value [1, 15] was 91.6%. The “Encapsulation ratio (%) Batch 1” value [1, 16] was 89.0%, the “Encapsulation ratio (%) Batch 2” value [1, 16] was 92.8% and the “Encapsulation ratio (%) Batch 3” value [1, 16] was 91.5%. For the same molecule, the “Encapsulation ratio (%) Batch 1” value [1, 17] was 98.9%, the “Encapsulation ratio (%) Batch 2” value [1, 17] was 102.0% and the “Encapsulation ratio (%) Batch 3” value [1, 17] was 96.9%. The “Encapsulation ratio (%) Batch 1” value [1, 18] was 99.2%, the “Encapsulation ratio (%) Batch 2” value [1, 18] was 102.0% and the “Encapsulation ratio (%) Batch 3” value [1, 18] was 95.5%. For the same molecule, the “Encapsulation ratio (%) Batch 1” value [1, 19] was 101.0%, the “Encapsulation ratio (%) Batch 2” value [1, 19] was 101.0% and the “Encapsulation ratio (%) Batch 3” value [1, 19] was 99.6%. For the same molecule, the “Encapsulation ratio (%) Batch 1” value [1, 20] was 92.8%, the “Encapsulation ratio (%) Batch 2” value [1, 20] was 92.0% and the “Encapsulation ratio (%) Batch 3” value [1, 20] was 97.7%. The “Encapsulation ratio (%) Batch 1” value [1, 21] was 95.5%, the “Encapsulation ratio (%) Batch 2” value [1, 21] was 98.5% and the “Encapsulation ratio (%) Batch 3” value [1, 21] was 99.7%. For the same molecule, the “weight loss of the microparticles” value [2] was 0.75%.
For `O=C1CCc2ccc(OCCCCN3CCN(c4cccc(Cl)c4Cl)CC3)cc2N1` [aripiprazole], the “Average encapsulation ratio of 3 batches” value [3] was 72.3±2.0%, the “Encapsulation ratio (%) Batch 1” value [3] was 72.2% and the “Encapsulation ratio (%) Batch 2” value [3] was 74.3%. The “Encapsulation ratio (%) Batch 3” value [3] was 70.3%.
With `CCN(C)C(=O)Oc1cccc([C@H](C)N(C)C)c1` [rivastigmine] the “Encapsulation ratio (%) Batch 1” value [4] was 74.2%, the “Encapsulation ratio (%) Batch 2” value [4] was 79.2% and the “Encapsulation ratio (%) Batch 3” value [4] was 78.1%.
With `CC(C)(C#N)c1cc(Cn2cncn2)cc(C(C)(C)C#N)c1` [anastrazole] the “Encapsulation ratio (%) Batch 1” value [5, 22] was 78.5%, the “Encapsulation ratio (%) Batch 2” value [5, 22] was 75.2% and the “Encapsulation ratio (%) Batch 3” value [5, 22] was 73.7%. The “Encapsulation ratio (%) Batch 1” value [5, 23] was 78.1%, the “Encapsulation ratio (%) Batch 2” value [5, 23] was 74.9% and the “Encapsulation ratio (%) Batch 3” value [5, 23] was 77.6%. The “Encapsulation ratio (%) Batch 1” value [5, 24] was 60.8%, the “Encapsulation ratio (%) Batch 2” value [5, 24] was 65.1% and the “Encapsulation ratio (%) Batch 1” value [5, 25] was 75.3%. For the same molecule, the “Encapsulation ratio (%) Batch 2” value [5, 25] was 73.8%, the “Encapsulation ratio (%) Batch 3” value [5, 25] was 74.7% and the “decomposition or modification products of anastrazole during the preparation of microparticles” value [6] was “no decomposition or modification products of anastrazole are produced”. For the same molecule, the “Encapsulation ratio (%) Batch 3” value [7] was 65.5%.
In the case of `Cc1nc2n(c(=O)c1CCN1CCC(c3noc4cc(F)ccc34)CC1)CCCC2` [risperidone], the “Average encapsulation ratio of 3 batches” value [8] is reported as 75.0±1.4%, the “Encapsulation ratio (%) Batch 1” value [8] is reported as 75.2% and the “Encapsulation ratio (%) Batch 2” value [8] is reported as 73.6%. For the same molecule, the “Encapsulation ratio (%) Batch 3” value [8] was 76.3%.
